Test results taken from article PMC9934367, “Functional impact of subunit composition and compensation on Drosophila melanogaster nicotinic receptors–targets of neonicotinoids” (PLOS Genetics, 2023).

System: D. melanogaster nAChRs
Experiment: Comparison of agonist activity between nAChRs expressed in X. laevis oocytes (one-way ANOVA, Kruskal-Wallis)
Type: cell-based
Method: We minimised the use of X. laevis according to the UK Animals (Scientific Procedures) Act, 1986. […] Oocytes were defolliculated after collagenase treatment in Ca^2+-free standard oocyte saline (Ca^2+-free SOS). cRNAs of the nAChR subunits and co-factors mixed at a concentration of 0.1 mg/mL was injected into oocytes at a volume of 50 nL. Then the oocytes were incubated in the incubation medium (SOS supplemented with sodium pyruvate (Nacalai Tesque, #13058–12), penicillin-streptomycin (MilliporeSigma, #P4333), gentamycin (Nacalai Tesque, #16672–04), and 4% horse serum (Thermo Fisher Scientific, #26050–070) for 3−4 days prior to electrophysiology.
Each defolliculated X. laevis oocyte was secured in a Perspex recording chamber and perfused with the standard oocyte saline (SOS) containing 0.5 μM atropine (SOSA) at a flow rate of 7−10 mL/min [48]. Two glass electrodes filled with 2 M KCl were impaled into each oocyte and the membrane potential was clamped at -100 mV. […] The peak amplitude of the response was measured and analysed by pCLAMP (Molecular Devices, USA).
Y=Imax/1+10^(logEC50‐X)nH
Where Y is the normalised response, X is log[ligand (M)], EC50 is the half maximal concentration (M), Imax is the maximum normalised response and nH is the Hill coefficient.
Prism software was employed for the statistical analyses. […] One-way ANOVA was used to analyse the differences of the ligand agonist activity in terms of pEC50 on the various nAChRs expressed in X. laevis as well as data obtained with D. melanogaster larvae and adults.

CC(=O)OCC[N+](C)(C)C [ACh, acetylcholine]
Difference of pEC50 values, nAChRs compared (Dα1/Dα2/Dα3/Dβ1/Dβ2 vs. Dα1/Dα2/Dβ1/Dβ2/Dβ3): 0.07
Difference of pEC50 values, nAChRs compared (Dα1/Dα2/Dα3/Dβ1/Dβ2 vs. Dα1/Dα3/Dα4/Dβ1/Dβ2): -0.30
Difference of pEC50 values, nAChRs compared (Dα1/Dα2/Dα3/Dβ1/Dβ2 vs. Dα1/Dα3/Dβ1/Dβ2/Dβ3): -1.34
Difference of pEC50 values, nAChRs compared (Dα1/Dα2/Dα3/Dβ1/Dβ2 vs. Dα2/Dα3/Dα4/Dβ1/Dβ2): -1.00
Difference of pEC50 values, nAChRs compared (Dα1/Dα2/Dα3/Dβ1/Dβ2 vs. Dα2/Dα3/Dβ1/Dβ2/Dβ3): -1.52
Difference of pEC50 values (Dα1/Dα2/Dα3/Dβ1 vs. Dα1/Dα2/Dα3/Dβ1/Dβ2): 0.94
Difference of pEC50 values (Dα1/Dα2/Dα3/Dβ1 vs. Dα1/Dα2/Dβ1/Dβ2): 0.51
Difference of pEC50 values (Dα1/Dα2/Dα3/Dβ1 vs. Dα1/Dα3/Dβ1/Dβ2): -1.00
Difference of pEC50 values (Dα1/Dα2/Dα3/Dβ1 vs. Dα1/Dβ1/Dβ2): 0.68
Difference of pEC50 values (Dα1/Dα2/Dα3/Dβ1 vs. Dα3/Dβ1/Dβ2): -0.76
Difference of pEC50 values (Dα1/Dα2/Dβ1/Dβ2 vs. Dα2/Dα3/Dβ1/Dβ2): -1.07
Difference of pEC50 values (Dα1/Dα2/Dβ1 vs. Dα1/Dα2/Dα3/Dβ1): -1.29
Difference of pEC50 values (Dα1/Dα2/Dβ1 vs. Dα1/Dα2/Dα3/Dβ1/Dβ2): -0.35
Difference of pEC50 values (Dα1/Dα2/Dβ1 vs. Dα1/Dα2/Dβ1/Dβ2): -0.78
Difference of pEC50 values (Dα1/Dα2/Dβ1 vs. Dα1/Dα3/Dβ1/Dβ2): -2.29
Difference of pEC50 values (Dα1/Dα2/Dβ1 vs. Dα2/Dα3/Dβ1): -1.31
Difference of pEC50 values (Dα1/Dα2/Dβ1 vs. Dα2/Dα3/Dβ1/Dβ2): -1.85
Difference of pEC50 values (Dα1/Dα2/Dβ1 vs. Dα3/Dβ1/Dβ2): -2.05
Difference of pEC50 values (Dα1/Dα3/Dβ1/Dβ2 vs. Dα1/Dα2/Dα3/Dβ1/Dβ2): 1.94
Difference of pEC50 values (Dα1/Dα3/Dβ1/Dβ2 vs. Dα1/Dα2/Dβ1/Dβ2): 1.51
Difference of pEC50 values (Dα1/Dα3/Dβ1 vs. Dα1/Dα2/Dα3/Dβ1/Dβ2): 1.36
Difference of pEC50 values (Dα1/Dα3/Dβ1 vs. Dα1/Dα2/Dβ1): 1.71
Difference of pEC50 values (Dα1/Dα3/Dβ1 vs. Dα1/Dα2/Dβ1/Dβ2): 0.93
Difference of pEC50 values (Dα1/Dα3/Dβ1 vs. Dα1/Dβ1/Dβ2): 1.10
Difference of pEC50 values (Dα1/Dα3/Dβ1 vs. Dα2/Dα3/Dβ1): 0.40
Difference of pEC50 values (Dα1/Dα3/Dβ1 vs. Dα3/Dβ1/Dβ2): -0.34
Difference of pEC50 values (Dα1/Dβ1/Dβ2 vs. Dα1/Dα2/Dα3/Dβ1/Dβ2): 0.26
Difference of pEC50 values (Dα1/Dβ1/Dβ2 vs. Dα1/Dα3/Dβ1/Dβ2): -1.68
Difference of pEC50 values (Dα1/Dβ1/Dβ2 vs. Dα2/Dα3/Dβ1/Dβ2): -1.24
Difference of pEC50 values (Dα1/Dβ1/Dβ2 vs. Dα3/Dβ1/Dβ2): -1.44
Difference of pEC50 values (Dα1/Dβ1 vs. Dα1/Dα2/Dα3/Dβ1/Dβ2): 0.75
Difference of pEC50 values (Dα1/Dβ1 vs. Dα1/Dα2/Dβ1): 1.10
Difference of pEC50 values (Dα1/Dβ1 vs. Dα1/Dα2/Dβ1/Dβ2): 0.32
Difference of pEC50 values (Dα1/Dβ1 vs. Dα1/Dα3/Dβ1/Dβ2): -1.19
Difference of pEC50 values (Dα1/Dβ1 vs. Dα1/Dβ1/Dβ2): 0.49
Difference of pEC50 values (Dα1/Dβ1 vs. Dα2/Dα3/Dβ1): -0.21
Difference of pEC50 values (Dα1/Dβ1 vs. Dα2/Dα3/Dβ1/Dβ2): -0.75
Difference of pEC50 values (Dα1/Dβ1 vs. Dα3/Dβ1): -0.90
Difference of pEC50 values (Dα1/Dβ1 vs. Dα3/Dβ1/Dβ2): -0.95
Difference of pEC50 values (Dα2/Dα3/Dβ1/Dβ2 vs. Dα1/Dα2/Dα3/Dβ1/Dβ2): 1.50
Difference of pEC50 values (Dα2/Dα3/Dβ1 vs. Dα1/Dα2/Dα3/Dβ1): 0.02
Difference of pEC50 values (Dα2/Dα3/Dβ1 vs. Dα1/Dα2/Dα3/Dβ1/Dβ2): 0.96
Difference of pEC50 values (Dα2/Dα3/Dβ1 vs. Dα1/Dα3/Dβ1/Dβ2): -0.98
Difference of pEC50 values (Dα2/Dα3/Dβ1 vs. Dα1/Dβ1/Dβ2): 0.70
Difference of pEC50 values (Dα2/Dα3/Dβ1 vs. Dα3/Dβ1/Dβ2): -0.74
Difference of pEC50 values (Dα3/Dβ1/Dβ2 vs. Dα1/Dα2/Dα3/Dβ1/Dβ2): 1.70
Difference of pEC50 values (Dα3/Dβ1/Dβ2 vs. Dα1/Dα2/Dβ1/Dβ2): 1.27
Difference of pEC50 values (Dα3/Dβ1/Dβ2 vs. Dα1/Dα3/Dβ1/Dβ2): -0.24
Difference of pEC50 values (Dα3/Dβ1/Dβ2 vs. Dα2/Dα3/Dβ1/Dβ2): 0.20
Difference of pEC50 values (Dα3/Dβ1 vs. Dα1/Dα2/Dα3/Dβ1): 0.71
Difference of pEC50 values (Dα3/Dβ1 vs. Dα1/Dα2/Dα3/Dβ1/Dβ2): 1.65
Difference of pEC50 values (Dα3/Dβ1 vs. Dα1/Dα2/Dβ1): 2.00
Difference of pEC50 values (Dα3/Dβ1 vs. Dα1/Dα2/Dβ1/Dβ2): 1.22
Difference of pEC50 values (Dα3/Dβ1 vs. Dα1/Dα3/Dβ1): 0.29
Difference of pEC50 values (Dα3/Dβ1 vs. Dα1/Dα3/Dβ1/Dβ2): -0.29
Difference of pEC50 values (Dα3/Dβ1 vs. Dα1/Dβ1/Dβ2): 1.39
Difference of pEC50 values (Dα3/Dβ1 vs. Dα2/Dα3/Dβ1): 0.69
Difference of pEC50 values (Dα3/Dβ1 vs. Dα3/Dβ1/Dβ2): -0.05
